#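 Grown in 96-well plates, cells were treated for 48 hours with each compound at five concentrations. Insufficient inhibition: endpoint recorded as highest concentration tested. GI50: concentration for 50% inhibition of growth.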 Calls of active or inactive are those of the source. Rule as the data show it: active = GI50 up to about 1.1 µM and inactive = higher.
# Columns and labels:
# Assay in all cases: NCI-60 cell line screen, 48 h
# HOP-18 = system: HOP-18
# DMS-273 = system: DMS-273
# KM-20L2 = system: KM-20L2
# LXFL 529 = system: LXFL 529
# HOP-92 = system: HOP-92
# UACC-257 = system: UACC-257
# HOP-62 = system: HOP-62
# SN12C = system: SN12C
# UACC-62 = system: UACC-62
# Malme-3M = system: Malme-3M
# HT-29 = system: HT-29
# M19-MEL = system: M19-MEL
# SR = system: SR
# RXF 631 = system: RXF 631
# CCRF-CEM = system: CCRF-CEM
# SF-268 = system: SF-268
# NCI-H460 = system: NCI-H460
# U-251 = system: U-251
# MOLT-4 = system: MOLT-4
# DLD-1 = system: DLD-1
# OVCAR-8 = system: OVCAR-8
# HCT-15 = system: HCT-15
# SF-539 = system: SF-539
# SNB-78 = system: SNB-78
# TK-10 = system: TK-10
# HCT-116 = system: HCT-116
# SF-295 = system: SF-295
# SK-MEL-28 = system: SK-MEL-28
# SNB-19 = system: SNB-19
# OVCAR-5 = system: OVCAR-5
# 786-0 = system: 786-0
# COLO 205 = system: COLO 205
# SK-OV-3 = system: SK-OV-3
# ACHN = system: ACHN
# NCI-H23 = system: NCI-H23
# SW-620 = system: SW-620
# HCC 2998 = system: HCC 2998
# RPMI-8226 = system: RPMI-8226
# SNB-75 = system: SNB-75
# NCI-H226 = system: NCI-H226
# XF498 = system: XF498
# HL-60 = system: HL-60
# A549 = system: A549
# EKVX = system: EKVX
# RXF 393 = system: RXF 393
# SK-MEL-2 = system: SK-MEL-2
# OVCAR-3 = system: OVCAR-3
# UO-31 = system: UO-31
# DMS-114 = system: DMS-114
# K562 = system: K562
# IGROV-1 = system: IGROV-1
# KM12 = system: KM12
# NCI-H522 = system: NCI-H522
# A498 = system: A498
# SK-MEL-5 = system: SK-MEL-5
# OVCAR-4 = system: OVCAR-4
# LOX IMVI = system: LOX IMVI
# CAKI-1 = system: CAKI-1
# M14 = system: M14
smiles,measurement,setting,value
Clc1ccc(Nc2nc3ccccc3nc2-c2cccs2)cc1Cl,GI50,HOP-18,97.5 µM (inactive)
same,GI50,DMS-273,34 µM (inactive)
same,GI50,KM-20L2,34.6 µM (inactive)
same,GI50,LXFL 529,38.9 µM (inactive)
same,GI50,HOP-92,19.7 µM (inactive)
same,GI50,UACC-257,34.4 µM (inactive)
same,GI50,HOP-62,> 100 µM (inactive)
same,GI50,SN12C,89.9 µM (inactive)
same,GI50,UACC-62,38.5 µM (inactive)
same,GI50,Malme-3M,> 100 µM (inactive)
same,GI50,HT-29,25.3 µM (inactive)
same,GI50,M19-MEL,57.8 µM (inactive)
same,GI50,SR,22.8 µM (inactive)
same,GI50,RXF 631,27.8 µM (inactive)
same,GI50,CCRF-CEM,27.2 µM (inactive)
same,GI50,SF-268,36.3 µM (inactive)
same,GI50,NCI-H460,22.7 µM (inactive)
same,GI50,U-251,> 10 µM (inactive)
same,GI50,MOLT-4,14.8 µM (inactive)
same,GI50,DLD-1,36.7 µM (inactive)
same,GI50,OVCAR-8,19.7 µM (inactive)
same,GI50,HCT-15,10.3 µM
same,GI50,SF-539,45.3 µM (inactive)
same,GI50,SNB-78,58.2 µM (inactive)
same,GI50,TK-10,42.1 µM (inactive)
same,GI50,HCT-116,23.4 µM (inactive)
same,GI50,SF-295,40.4 µM (inactive)
same,GI50,SK-MEL-28,28.7 µM (inactive)
same,GI50,SNB-19,36 µM (inactive)
same,GI50,OVCAR-5,> 100 µM (inactive)
same,GI50,786-0,35.7 µM (inactive)
same,GI50,COLO 205,26.1 µM (inactive)
same,GI50,SK-OV-3,> 100 µM (inactive)
same,GI50,ACHN,32.1 µM (inactive)
same,GI50,NCI-H23,37.8 µM (inactive)
same,GI50,SW-620,85.7 µM (inactive)
same,GI50,HCC 2998,32.1 µM (inactive)
same,GI50,RPMI-8226,45.2 µM (inactive)
same,GI50,SNB-75,84.9 µM (inactive)
same,GI50,NCI-H226,34.1 µM (inactive)
same,GI50,XF498,62.1 µM (inactive)
same,GI50,HL-60,12.2 µM (inactive)
same,GI50,A549,29.9 µM (inactive)
same,GI50,EKVX,69.5 µM (inactive)
same,GI50,RXF 393,22.6 µM (inactive)
same,GI50,SK-MEL-2,> 100 µM (inactive)
same,GI50,OVCAR-3,> 100 µM (inactive)
same,GI50,UO-31,34.8 µM (inactive)
COc1ccc(C(=O)O[C@H]2[C@@H]3C=CO[C@@H](OC4OC(CO)C(O)C(O)C4O)[C@@H]3[C@@]3(CO)O[C@@H]23)cc1O (some centres not stated),GI50,DMS-273,> 100 µM (inactive)
same,GI50,KM-20L2,> 100 µM (inactive)
same,GI50,LXFL 529,> 100 µM (inactive)
same,GI50,DMS-114,> 100 µM (inactive)
same,GI50,K562,> 100 µM (inactive)
same,GI50,IGROV-1,> 100 µM (inactive)
same,GI50,KM12,> 100 µM (inactive)
same,GI50,HOP-92,> 100 µM (inactive)
same,GI50,UACC-257,> 100 µM (inactive)
same,GI50,HOP-62,> 100 µM (inactive)
same,GI50,SN12C,> 100 µM (inactive)
same,GI50,UACC-62,> 100 µM (inactive)
same,GI50,Malme-3M,> 100 µM (inactive)
same,GI50,HT-29,> 100 µM (inactive)
same,GI50,M19-MEL,> 100 µM (inactive)
same,GI50,RXF 631,> 100 µM (inactive)
same,GI50,CCRF-CEM,> 100 µM (inactive)
same,GI50,SF-268,> 100 µM (inactive)
same,GI50,NCI-H460,> 100 µM (inactive)
same,GI50,U-251,> 100 µM (inactive)
same,GI50,NCI-H522,> 100 µM (inactive)
same,GI50,MOLT-4,> 100 µM (inactive)
same,GI50,DLD-1,> 100 µM (inactive)
same,GI50,OVCAR-8,> 100 µM (inactive)
same,GI50,SF-539,> 100 µM (inactive)
same,GI50,SNB-78,> 100 µM (inactive)
same,GI50,TK-10,> 100 µM (inactive)
same,GI50,SF-295,> 100 µM (inactive)
same,GI50,SK-MEL-28,> 100 µM (inactive)
same,GI50,SNB-19,> 100 µM (inactive)
same,GI50,A498,> 100 µM (inactive)
same,GI50,OVCAR-5,> 100 µM (inactive)
same,GI50,SK-MEL-5,> 100 µM (inactive)
same,GI50,OVCAR-4,> 100 µM (inactive)
same,GI50,786-0,> 100 µM (inactive)
same,GI50,LOX IMVI,> 100 µM (inactive)
same,GI50,COLO 205,> 100 µM (inactive)
same,GI50,SK-OV-3,> 100 µM (inactive)
same,GI50,ACHN,> 100 µM (inactive)
same,GI50,NCI-H23,> 100 µM (inactive)
same,GI50,SW-620,> 100 µM (inactive)
same,GI50,HCC 2998,> 100 µM (inactive)
same,GI50,RPMI-8226,> 100 µM (inactive)
same,GI50,SNB-75,> 100 µM (inactive)
same,GI50,CAKI-1,> 100 µM (inactive)
same,GI50,XF498,> 100 µM (inactive)
same,GI50,HL-60,> 100 µM (inactive)
same,GI50,A549,> 100 µM (inactive)
same,GI50,M14,> 100 µM (inactive)
same,GI50,EKVX,> 100 µM (inactive)
same,GI50,RXF 393,> 100 µM (inactive)
same,GI50,SK-MEL-2,> 100 µM (inactive)
same,GI50,OVCAR-3,> 100 µM (inactive)
same,GI50,UO-31,> 100 µM (inactive)

# Reference: ChEMBL document CHEMBL1201862, “PubChem BioAssay data set” (2004)
